# Laboratory results from patent US20150212068A1, “Cholyl-L-Lysyl-Fluorescein Assay” (Novassay SA, priority 2012, published 2015).
# Entries after “also recorded” stand apart in the source; their conditions may differ.
# System: serum/plasma proteins
# Assay: Effect of ANS on CLF recovery in the labelled-antibody format
# Format: in vitro ADME
# Settings: human serum/plasma spiked with CLF, competitive immunoassay
# Excerpt: This was successful in shifting the mean recovery to ˜100%. However, an unacceptably wide sample-to-sample variation was still observed (˜70-180%), therefore it was concluded that a blocker approach would be required, in which a chemical agent is used to displace the analyte from the binding proteins, so that it can be recovered effectively in the assay. […] ANS was therefore evaluated in more detail in this format.
# The following study was executed to assess the recovery of CLF following spiking into human serum in assays, in the presence and absence of ANS.
# 25 μl of standard (in buffer) was added to streptavidin coated wells, followed by 100 ul of 20 ng/ml biotin-fluorescein (one formulation containing 0.2% ANS, the other without) and 100 μl of anti-fluorescein HRP (100 ng/ml). After 30 minutes incubation (RT/static) the wells were washed and 100 μl of SureBlue Reserve TMB substrate added. After a further 10 minutes incubation, 100 μl of 1M HCl was added and the colour intensity measured at 450 nm.
# 3 plasma samples (Lithium heparin) were spiked with CLF at […]; these concentrations (the expected values) are noted in the relevant sample IDs.
structure (smiles),measurement,value
"O=S(=O)(O)c1cccc2cccc(Nc3ccccc3)c12 [ANS, 8-anilino-1-naphthalene sulfonic acid]",displacement of CLF from serum/plasma proteins by blocker,effective in displacing CLF bound to serum/plasma proteins; also recorded: able to displace CLF from serum proteins
